From PubChem BioAssay AID1963976 (Molecular Pharmacology Branch, DTP, NCI, 2024)
pIC50: −log10 of the molar value.

Tested on: 435261-313-R-J1-PDC tumor spheroid viability
Test: Anticancer human tumor 435261-313-R-J1-PDC patient-derived colon adenocarcinoma cell line growth inhibition [PI3K]
Conditions: spheroids with HUVEC and MSC; for pIC50: curve of first compound; for viability, T/C: stronger effect = lower value
From the text: Combinatorial screen of targeted agents with the PI3K inhibitors inavolisib, alpelisib, duvelisib, and copanlisib in multi-cell type tumor spheroids
A high-throughput screen of multi-cell type tumor spheroids was designed to identify active combinations of targeted small molecules and PI3K pathway inhibitors. Complex spheroids include a stromal component modeled by human endothelial cells (HUVEC) and fibroblasts modeled by human mesenchymal stem cells (MSCs). The concentration ranges selected for each drug and investigational agent were based upon clinically achievable concentrations if the clinical Cmax of the agent was known.
Compounds. The drugs and investigational agents: inavolisib (NSC800729), alpelisib (NSC765974), duvelisib (NSC772469), copanlisib (NSC816437), ipatasertib (NSC767898), afuresertib (NSC778305), talazoparib (NSC767125), sapanisertib (NSC764658), selumetinib (NSC741078), tovorafenib (DAY101, NSC766906), vemurafenib (NSC761431), ravoxertinib (NSC781343), sotorasib (NSC818433), MRTX1133 (NSC 836407), abemaciclib (NSC 768073), palbociclib (NSC758247), venetoclax (NSC 766270), SY5609 (NSC837396), enzalutamide (NSC755605), and darolutamide (NSC825331), were obtained from the National Cancer Institute (NCI) Developmental Therapeutics Program Chemical Repository. The FDA-approved anticancer drug set is available from the NCI Developmental Therapeutics Program. […] The stock solutions were prepared in dimethyl sulfoxide (DMSO, Sigma-Aldrich, St. Louis, MO, cat. D2650) at 800-fold the tested concentration and stored at -70 degrees C prior to their use. All drugs and investigational agents were tested over a range starting from a high concentration at or near the clinical Cmax and decreasing in half-log increments. If the clinical Cmax for an agent had not been determined, the highest concentration tested was 10 microM.
Cell Culture. All cells were maintained in an incubator at 37 degrees C and 5% CO2 with 95% humidity. The PDC lines were cultured according to standard operating procedures established by the NCI PDMR (https://pdmr.cancer.gov/sops/default.htm). All PDCs were thawed and cultured in Matrigel-coated flasks prepared with a working solution of 1X Ham's F-12 nutrient mix, without supplementation (Invitrogen, Waltham, MA, cat. 11765054), 100 U/mL penicillin-streptomycin (Invitrogen, cat. 15140122), and 2.5% Matrigel (Corning Inc., Corning, NY, cat. 354248) for the first three passages. The 354836-022-R-J1-PDC, 475296-252-R-J1-PDC, and 997726-040-R-J2-PDC lines were cultured in 6A media, which includes advanced DMEM/F-12 (Thermo Fisher Scientific, cat. 12634028), 10 mM HEPES (Thermo Fisher Scientific, cat. 15630080), 1X GlutaMAX supplement (Thermo Fisher Scientific, cat. 35050061), 0.1 mg/mL primocin (InvivoGen, San Diego, CA, cat. ant-pm-2), 10% defined fetal bovine serum, heat inactivated (HyClone Laboratories Inc., Logan, UT, cat. SH30070.03HI), 50% L-WRN conditioned media (ATCC, cat. CRL-3276), 1.25 mM N-Acetyl-L-cysteine (Sigma-Aldrich, cat. A9165), 10 mM nicotinamide (Sigma-Aldrich, cat. N0636), 1X B-27 supplement (Thermo Fisher Scientific, cat. 17504044), 1X N-2 supplement (Thermo Fisher Scientific, cat. 17502048), and 10 microM Y-27632 dihydrochloride (Tocris Bioscience, Bristol, United Kingdom, cat. 1254). The 624824-186-R-J2-PDC line was cultured in 6C/Colon 1B media, which includes all 6A media components plus 50 ng/mL human EGF recombinant protein (Thermo Fisher Scientific, cat. PHG0311). […]
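Further: spheroids exposed to compounds for 7 days.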

pIC50 (second compound 0.00316 µM): 5.50
pIC50 (second compound 0.01 µM): 7.50
pIC50 (second compound 0.0316 µM): > 7.50
pIC50 (second compound 0.1 µM): > 7.50
pIC50 (second compound 0.316 µM): > 7.50
pIC50 (second compound 1 µM): > 7.50
Compound: CC1(C)CCC(Nc2ncc(C(F)(F)F)c(-c3c[nH]c4c(P(C)(C)=O)c(C#N)ccc34)n2)CN1 (configuration not stated) + COc1c(OCCCN2CCOCC2)ccc2c3n(c(=NC(=O)c4cnc(N)nc4)nc12)CCN3
viability, T/C (second compound 0.00316 µM, first compound 0.0316 µM): 56.2%
viability, T/C (second compound 0.00316 µM, first compound 0.1 µM): 58.8%
viability, T/C (second compound 0.00316 µM, first compound 0.316 µM): 54.5%
viability, T/C (second compound 0.00316 µM, first compound 1 µM): 57.2%
viability, T/C (second compound 0.00316 µM, first compound 3.16 µM): 50.1%
viability, T/C (second compound 0.00316 µM, first compound 10 µM): 0.44%
viability, T/C (second compound 0.01 µM, first compound 0.0316 µM): 42.3%
viability, T/C (second compound 0.01 µM, first compound 0.1 µM): 43.9%
viability, T/C (second compound 0.01 µM, first compound 0.316 µM): 49.2%
viability, T/C (second compound 0.01 µM, first compound 1 µM): 47.7%
viability, T/C (second compound 0.01 µM, first compound 3.16 µM): 58.8%
viability, T/C (second compound 0.01 µM, first compound 10 µM): 0.48%
viability, T/C (second compound 0.0316 µM, first compound 0.0316 µM): 31.6%
viability, T/C (second compound 0.0316 µM, first compound 0.1 µM): 32.6%
viability, T/C (second compound 0.0316 µM, first compound 0.316 µM): 33.7%
viability, T/C (second compound 0.0316 µM, first compound 1 µM): 30.9%
viability, T/C (second compound 0.0316 µM, first compound 3.16 µM): 21.5%
viability, T/C (second compound 0.0316 µM, first compound 10 µM): 0.35%
viability, T/C (second compound 0.1 µM, first compound 0.0316 µM): 17.8%
viability, T/C (second compound 0.1 µM, first compound 0.1 µM): 16.8%
viability, T/C (second compound 0.1 µM, first compound 0.316 µM): 15.5%
viability, T/C (second compound 0.1 µM, first compound 1 µM): 18.6%
viability, T/C (second compound 0.1 µM, first compound 3.16 µM): 7.14%
viability, T/C (second compound 0.1 µM, first compound 10 µM): 0.28%
viability, T/C (second compound 0.316 µM, first compound 0.0316 µM): 7.08%
viability, T/C (second compound 0.316 µM, first compound 0.1 µM): 6.11%
viability, T/C (second compound 0.316 µM, first compound 0.316 µM): 5.71%
viability, T/C (second compound 0.316 µM, first compound 1 µM): 5.56%
viability, T/C (second compound 0.316 µM, first compound 3.16 µM): 2.4%
viability, T/C (second compound 0.316 µM, first compound 10 µM): 0.23%
viability, T/C (second compound 1 µM, first compound 0.0316 µM): 3.57%
viability, T/C (second compound 1 µM, first compound 0.1 µM): 2.68%
viability, T/C (second compound 1 µM, first compound 0.316 µM): 3.18%
viability, T/C (second compound 1 µM, first compound 1 µM): 2.83%
viability, T/C (second compound 1 µM, first compound 3.16 µM): 1.6%
viability, T/C (second compound 1 µM, first compound 10 µM): 0.23%
